# Measurements: US11891369B2, “Compounds for binding proprotein convertase subtilisin/kexin type 9” (SRX Cardio, LLC, priority 2016, dated 2024)
# Experiments:
# PCSK9 [1] = target: T1, PCSK9 (Homo sapiens, UniProt Q8NBP7); experiment: LDLR flow cytometric analysis (LDL-R assay); format: cell-based; settings: percentage recovery in the LDL-R assay at 20 uM concentration
# T1 construct: host or cells: added to HepG2, HuH7, FL83B or shPCSK9 knockdown lines
# Text: Cells, such as HepG2, HuH7, FL83B, or a cell line transfected with a short-hairpin PCSK9 knockdown sequence (e.g., HepG2/shPCSK9, HuH7/shPCSK9) can be cultured following routine procedures, such as those described by Benjannet et al., “Effects of the prosegment and pH on the activity of PCSK9: evidence for additional processing events” J Biol Chem. 285(52): 40965-40978 (2010), which is hereby incorporated by reference in its entirety.
# LDLR levels can be measured using flow cytometry or fluorescence activated cell sorting (FACS) using protocols adapted from Benjannet et al., “Effects of the prosegment and pH on the activity of PCSK9: evidence for additional processing events” J Biol Chem. 285(52): 40965-40978 (2010) and “Composition and Methods of Use of Small Molecules as Binding Ligands for the Modulation of Proprotein Convertase Subtilisin/Kexin Type 9 (PCSK9) Protein Activity” (WO2016029037), which are incorporated by reference in their entirety.
# Cells, such as HepG2, HuH7, FL83B, or a cell line transfected with a short-hairpin PCSK9 knockdown sequence such as HepG2/shPCSK9, HuH7/shPCSK9, or FL83B/shPCSK9 are cultured in media composed of complete, high glucose DMEM (Invitrogen) with 10% fetal bovine serum (Life Technologies), supplemented with penicillin-streptomycin (Life Technologies). Cells are plated in a 24-well plate, at 125 k cells/well, and cultured at 37° C. for 12-24 h. Culture media is removed and replaced with fresh culture media or culture media plus a predetermined amount of recombinant PCSK9 (final 5 ug/ml). Wells evaluating test compounds are dosed with concentrations ranging from 0 nM to 100 uM.
# Following an incubation period of 4-6 hours at 37° C., the media is removed and the cells are rinsed by adding 0.5 ml of complete D-PBS (i.e., Dulbecco's phosphate buffered saline (D-PBS, Life Technologies) supplemented with 0.5% bovine serum albumin (BSA, Sigma) and 1 g/L glucose (Sigma)). The wash media is carefully aspirated, and cells are released from the plate using 200 uls of TrypLE Express (Life Technologies) by incubating for 5-10 minutes at 37° C. The TyrpLE-Cell suspension is inactivated by adding 100 uls of Fetal Bovine Serum, transferred to a v-bottom plate, and centrifuged at 250× gravity for 5 minutes. Following centrifugation, the supernatant is aspirated and the cell pellet is resuspended in 100 uL of complete D-PBS, and centrifuged at 250× gravity for 5 minutes. Following centrifugation, the supernatant is aspirated and the cell pellet is resuspended in 100 uls of antibody staining solution (600 uls of anti-LDLr-PE in complete D-PBS) and incubated on ice, protected from light, for 30 minutes. The cells are then pelleted by centrifugation, resuspended in 100 uL of 4′,6-Diamidino-2-phenylindole (DAPI, Cayman Chemical) or 7-aminoactinomycin D (7AAD, Life Technologies) staining solution to measure cell viability
# Cells are analyzed for both cell viability marker (dead cells) and LDLR in live cells using a flow cytometer per the manufacturer's operating manual. Cells incubated with small molecule compounds that are inhibitors of PCSK9 will be expected to show increased amounts of LDLR, relative to control (no compound) specimens, and cells incubated with small molecule compounds that are activators of PCSK9 will be expected to show decreased amounts of LDLR relative to control (no compound) specimens.
# PCSK9 [2] = target: T1, PCSK9; experiment: Cellular DiI-LDL uptake analysis (LDL-uptake assay); format: cell-based; settings: for DiI-LDL uptake (% of control) at 20 µM: read-out: LDL-uptake % of control; for remaining activity at 20 µM: percentage uptake of DiI-LDL over the control at 20 uM concentration
# Method: Cells, such as HepG2, HuH7, FL83B, or a cell line transfected with a short-hairpin PCSK9 knockdown sequence such as HepG2/shPCSK9, HuH7/shPCSK9, or FL83B/shPCSK9 are plated and cultured at 37° C. for 12-24 h. Culture media is removed and replaced with fresh lipoprotein-depleted culture media supplemented with 5 ug/mL of DiI-LDL (Kalen Biomedical) or lipoprotein-depleted culture media supplemented with 5 ug/mL of DiI-LDL plus a predetermined concentration of recombinant PCSK9, for example a 10 nM final concentration of PCSK9. Lipoprotein-depleted culture media can be composed of DMEM (Invitrogen) with 10% lipoprotein-depleted fetal bovine serum (Kalen Biomedical) and supplemented with penicillin-streptomycin (Life Technologies). Cells are dosed with small molecule test compounds at doses ranging from 0 nM to 100 uM.
# The lipoprotein-depleted media is removed and cells rinsed three times with phosphate buffered saline. A final volume of phosphate buffered saline is added back to the wells. The DiI fluorescence is measured with a plate reader using an exciting wavelength of 550 nm and the resulting emission at 590 nm is measured. The Hoechst stain fluorescence is measured with a plate reader using an exciting wavelength of 355 nm and the resulting emission at 460 nm is measured.
# Cells are analyzed by for both Hoechst stain (DNA content) and DiI-LDL fluorescence.
# T1 sequence (Q8NBP7 153-692): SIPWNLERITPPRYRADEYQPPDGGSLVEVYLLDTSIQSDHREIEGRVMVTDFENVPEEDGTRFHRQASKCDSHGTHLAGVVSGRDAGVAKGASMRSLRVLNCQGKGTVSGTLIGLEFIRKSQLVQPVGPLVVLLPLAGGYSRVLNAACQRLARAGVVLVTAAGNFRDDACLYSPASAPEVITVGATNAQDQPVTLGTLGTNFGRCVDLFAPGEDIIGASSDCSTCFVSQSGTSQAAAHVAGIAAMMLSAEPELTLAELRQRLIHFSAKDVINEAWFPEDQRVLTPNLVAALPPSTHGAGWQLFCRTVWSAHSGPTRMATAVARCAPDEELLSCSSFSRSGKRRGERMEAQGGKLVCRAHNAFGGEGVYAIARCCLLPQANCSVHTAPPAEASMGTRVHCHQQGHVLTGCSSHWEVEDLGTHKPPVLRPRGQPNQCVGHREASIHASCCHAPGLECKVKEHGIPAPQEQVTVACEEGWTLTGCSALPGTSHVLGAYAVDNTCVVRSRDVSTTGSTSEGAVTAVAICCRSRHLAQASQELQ
SMILES,LDL-R % Recovered (PCSK9 [1]),DiI-LDL uptake (% of control) at 20 µM (PCSK9 [2]) [%],remaining activity at 20 µM (PCSK9 [2]) [%]
"FC(F)(F)c1ccc(N2CCNCC2)c2ccccc12 [compound 1, 1-(4-(Trifluoromethyl)naphthalen-1-yl)piperazine]",+++ (>30% recovery),> 150,–
"c1ccc2c(N3CCNCC3)ccc(OC3CCNCC3)c2c1 [compound 4, 1-(4-(Piperidin-4-yloxy)naphthalen-1-yl)piperazine]",+ (0-10% recovery),–,> 150
"c1ccc2c(N3CCNCC3)ccc(NC3CCNCC3)c2c1 [compound 5, N-(4-(Piperazin-1-yl)naphthalen-1-yl)piperidin-4-amine]",++ (10-30% recovery),–,< 100
"O=S(=O)(c1ccc(N2CCNCC2)c2ccccc12)C1CCNCC1 [compound 7, 1-(4-(Piperidin-4-ylsulfonyl)naphthalen-1-yl)piperazine]",+ (0-10% recovery),–,> 150
"O=C(c1ccc(N2CCNCC2)c2ccccc12)N1CCNCC1 [compound 8, Piperazin-1-yl(4-(piperazin-1-yl)naphthalen-1-yl)methanone]",+ (0-10% recovery),–,> 150
"NC(=O)N1CCN(c2cccc3ccccc23)CC1 [compound 11, 4-(Naphthalen-1-yl)piperazine-1-carboxamide]",+ (0-10% recovery),< 100,–
"O=S(=O)(c1ccc(C2CCNCC2)c2ccccc12)C1CCNCC1 [compound 23, 4-((4-(Piperidin-4-yl)naphthalen-1-yl)sulfonyl)piperidine]",+ (0-10% recovery),–,> 150
"Cc1ccc(C2CCNCC2)c2ccccc12 [compound 43, 4-(4-Methylnaphthalen-1-yl)piperidine]",++ (10-30% recovery),–,> 150
"O=S(=O)(Nc1ccccc1)c1ccc(N2CCNCC2)c2ccccc12 [compound 73, N-phenyl-4-(piperazin-1-yl)naphthalene-1-sulfonamide]",+ (0-10% recovery),–,100 to 150
"c1ccc2c(N3CCNCC3)cccc2c1 [compound 107, 1-(naphthalen-1-yl)piperazine]",++ (10-30% recovery),> 150,–
